One test relates to P. aeruginosa ATCC 27853. The format is cell-based, Pseudomonas aeruginosa. The settings on record: broth microdilution, Mueller Hinton (plus cations) broth, 24 hours at 37 °C, no visible growth; triplicate, averaged. The method, then:
(§1) Minimum inhibitory concentrations (MIC) of the peptides were determined by broth microdilution according to the Clinical and Laboratory Standards Institute. About 90 µL of 0.5–1 × 10^6 CFU/mL of Pseudomonas aeruginosa ATCC 27853 and E. coli ATCC 25922 in Mueller Hinton media (plus cations) broth (BD, Baltimore, MD, USA) was incubated in 96-well microtitre plates with serial twofold dilutions of the peptides. Minimum inhibitory concentrations (MICs) were defined as the lowest peptide concentration with no visible growth of bacteria after 24 hours at 37 °C. All measurements were made in triplicate and averaged.
Background: Dilution methods test growth across graded concentrations, often in twofold steps.

Another test concerns E. coli 345-2. The format is cell-based. The following applies: broth microdilution, Mueller Hinton (plus cations) broth, 24 hours at 37 °C; triplicate, averaged.
A further test deals with E. coli ATCC 25922. The format is cell-based. The settings on record: broth microdilution, Mueller Hinton (plus cations) broth, 24 hours at 37 °C, no visible growth; triplicate, averaged. As for the experimental part:
as §1

Test [1] has as its system E. coli 122 inner membrane. As to the kind of experiment: Inner membrane permeabilization to ONPG. The following applies: read-out: IM permeabilization: peptide concentration resulting in half-maximal translocated substrate turnover, PBS pH 7.4, 30 °C, triplicate.
Description: Inner membrane permeability was determined by measuring the β-galactosidase activity of lactose permease-deficient E. coli at 30 °C using ONPG as substrate. E. coli cells overexpressing the β- galactosidase enzyme (E. coli 122) were grown to logarithmic phase, washed, and resuspended (10^8 CFU/mL) in phosphate buffered saline pH 7.4. About 90 µL of 1 × 10^7 CFU of the test organism containing 0.4 mg/mL ONPG was then added to 96-well microtitre plates containing serial twofold dilutions of antimicrobial peptides. The production of o-nitrophenol was monitored spectrophotometrically at 420 nm. An equivalent volume of water replaced the peptide solution in the control assay. All data were measured in triplicate.
Another test deals with E. coli UB 122. The format is cell-based. The following applies: broth microdilution, Mueller Hinton (plus cations) broth, 24 hours at 37 °C; triplicate, averaged.
Test [2] has as its system E. coli 345-2 outer membrane. As to the kind of experiment: Outer membrane permeabilization to nitrocefin. The settings on record: read-out: OM permeabilization: peptide concentration resulting in half-maximal translocated substrate turnover, triplicate.
Description: Outer and inner membrane permeabilities were determined as described previously [16]. E. coli cells overexpressing β-lactamase were grown to logarithmic phase, washed, and resuspended (10^8 CFU/mL) in 10 mM HEPES buffer pH 7.4. About 90 µL of 1 × 10^7 CFU of the test organism (E. coli 345-2) containing 20 µg/mL nitrocefin was then added to 96-well microtitre plates containing serial twofold dilutions of antimicrobial peptides. Nitrocefin cleavage was monitored by measuring A490. All data were measured in triplicate.

Like-named read-outs stand apart in the source and are kept apart here.

In the case of Polymyxin E, the “MIC P. aeruginosa ATCC 27853” value with P. aeruginosa ATCC 27853 was 2 µM. In the test on E. coli 345-2, the “MIC E. coli 345-2” value worked out at 0.5 µM. The “MIC E. coli ATCC 25922” value in the test with E. coli ATCC 25922 came to 1 µM. The EC50 in test [1] (+Mg2+ (0.4 mM MgCl2), ONPG) was above 100000 nM; in test [1] (−Mg2+, ONPG 0.4 mg/mL, 420 nm) it was above 40000 nM; in test [2] (+Mg2+ (0.4 mM MgCl2), nitrocefin, 10 mM HEPES pH 7.4), 1800 nM; in test [2] (−Mg2+, nitrocefin 20 µg/mL, 10 mM HEPES pH 7.4, A490), 2000 nM. Moreover, the “MIC E. coli UB 122” value with E. coli UB 122 is 0.5 µM.

For the origin of these results see PMC2877818, “Thermodynamics of RTA3 peptide binding to membranes and consequences for antimicrobial activity^” (Biochimica et Biophysica Acta, 2010).
